These results are taken from patent US8563717B2, “Adenine derivatives” (GlaxoSmithKline LLC, priority 2008, dated 2013).

Where a name gives a salt, the structure may show the parent alone. Some results are limits rather than exact numbers.

For the test, the system named is Interferon-α. Kind of test: Induction of Interferon-α using cryopreserved human PBMCs. The format is cell-based. Conditions: PBMC, 24 h incubation, normalised to 1 uM resiquimod, read-out: mean pEC50 for induction of IFN-α (converted). As for the experimental part:
Assay for the Induction of Interferon-α Using Cryopreserved Human Peripheral Blood Mononuclear Cells (PBMCs)
Compounds were dissolved in DMSO. Serial 2-fold dilutions with DMSO were prepared and 0.25 μl dispensed into 384-well clear Greiner polypropylene plates.
Blood samples of up to 200 ml were obtained from healthy human donors. Whole blood in 25 ml volumes was overlaid onto 15 ml Ficoll gradients in Leucosep tubes, and centrifuged at 1000 g for 20 min. Cells in the band at the plasma/histopaque interface were carefully removed and washed twice with PBS (centrifuged at 400 g for 5 min to harvest). The final pellet was resuspended in freezing medium (90% Heat-inactivated serum, 10% DMSO) to a cell concentration of 4×10^7 cells/ml. The resuspended cells were then cryopreserved (frozen) using a rate controlled freezer, and stored at −140° C. for up to 4 months.
Immediately prior to assay, vials of cryopreserved (frozen) PBMCs were thawed rapidly in a water bath at 37° C. A 1:10 dilution of the cells in trypan blue was prepared and counted. The PBMCs were then diluted in growth media [RPMI 1640 containing 10% fetal calf serum (invitrogen), Penicillin+[…] (Gibco cat. #25030-024, 1:50), L-Glutamine 2 mM, and 1000 units/ml recombinant human IFN-gamma (Preprotech catalogue #300-02)] to a density of 1×10^6 cells/ml, and 50 ul/well dispensed to 384-well clear Greiner polypropylene plates containing 0.25 μl DMSO or test compound in 0.25 μl DMSO. […] Plates were incubated for 24 h at 37° C. in 5% CO2.
A multi-isoform immunoassay was used to quantify IFN-α in PBMC supernatants. Rabbit polyclonal antibody against human IFN-α (catalogue number 31101, Stratech Scientific) was diluted 1:10000 in assay buffer (RPMI 1640 containing 10% fetal calf serum, Invitrogen) and 20 μl was added to each well of an MSD (Meso-Scale Discovery) single small-spot 384-well GAR (goat anti-rabbit antibody coated) plate. The plate was incubated for 1 hour at room temperature with vigorous shaking. Following three washes with PBS, 20 μl of cell supernatant were added to each well of the plate. The plate was then incubated for 1 hour at room temperature with vigorous shaking. A pair of monoclonal antibodies to IFN-α (catalogue numbers 21100 and 21112, Stratech Scientific) were labelled with sulfo-TAG (MSD), diluted 1:1000 in assay buffer and 20 μl added to each well of the plate. The plate was further incubated for 1 hour at room temperature with vigorous shaking. Following three washes with PBS, 30 μl of x2 T buffer (MSD) was added to each well and the plate was read on an MSD Sector 6000 plate reader.
Data were normalised to internal plate controls of 1 uM resiquimod (n=16) and DMSO (n=16). pEC50 values were derived by 4-parameter curve fit with IRLS in ActivityBase, from 11-point, two-fold serial dilution of test compounds.
As for `CCC[C@H](C)Oc1nc(N)c2[nH]c(=O)n(CC3CCN(CC)CC3)c2n1` [Example 78, 6-Amino-9-[(1-ethyl-4-piperidinyl)methyl]-2-{[(1S)-1-methylbutyl]oxy}-7,9-dihydro-8H-purin-8-one], the EC50 is < 1580 nM.

On to `CCCCOc1nc(N)c2[nH]c(=O)n(CCC3CCN(CCC4CCCCC4)CC3)c2n1` [Example 89, 6-Amino-2-(butyloxy)-9-{2-[1-(2-cyclohexylethyl)-4-piperidinyl]ethyl}-7,9-dihydro-8H-purin-8-one], for which the EC50 was < 1580 nM.

Take `CCCCOc1nc(N)c2[nH]c(=O)n(CCCCCC3CCN(CCC)CC3)c2n1` [Example 124, 6-Amino-2-(butyloxy)-9-[5-(1-propyl-4-piperidinyl)pentyl]-7,9-dihydro-8H-purin-8-one]: the EC50 is < 1580 nM.

With `CCCCOc1nc(N)c2[nH]c(=O)n(CCCC3CCCN(CCC(C)C)C3)c2n1` (stereo not shown) [Example 49, 6-Amino-2-(butyloxy)-9-{3-[1-(3-methylbutyl)-3-piperidinyl]propyl}-7,9-dihydro-8H-purin-8-one], the EC50 was < 1580 nM.

In the case of `CCCCOc1nc(N)c2[nH]c(=O)n(CCCCCC3CCN(CC4CCCC4)CC3)c2n1` [Example 130, 6-Amino-2-(butyloxy)-9-{5-[1-(cyclopentylmethyl)-4-piperidinyl]pentyl}-7,9-dihydro-8H-purin-8-one hydrochloride], the EC50 was < 1580 nM.

As to `CCCCOc1nc(N)c2[nH]c(=O)n(CCCC3CCCN(C(C)C)C3)c2n1` (stereo not shown) [Example 46, 6-Amino-2-(butyloxy)-9-{3-[1-(1-methylethyl)-3-piperidinyl]propyl}-7,9-dihydro-8H-purin-8-one], the EC50 was < 1580 nM.

For `CCCCOc1nc(N)c2[nH]c(=O)n(CCC3CCNCC3)c2n1` [Example 6, hydrochloride], the EC50 is < 1580 nM.

For the compound `CCCCOc1nc(N)c2[nH]c(=O)n(CCCCC3CCCNC3)c2n1` (stereo not shown) [Example 55, 6-amino-2-(butyloxy)-9-[4-(3-piperidinyl)butyl]-7,9-dihydro-8H-purin-8-one], the EC50 is < 1580 nM.

Take `CCCCOc1nc(N)c2[nH]c(=O)n(CC3CCCNC3)c2n1` (stereo not shown) [Example 4, hydrochloride]: the EC50 is < 1580 nM.

In the case of `CCCCOc1nc(N)c2[nH]c(=O)n(CCCC3CCCN(CC(C)C)C3)c2n1` (stereo not shown) [Example 48, 6-Amino-2-(butyloxy)-9-{3-[1-(2-methylpropyl)-3-piperidinyl]propyl}-7,9-dihydro-8H-purin-8-one hydrochloride], the EC50 is < 1580 nM.

As to `CCCCOc1nc(N)c2[nH]c(=O)n(CCCCCC3CCN(CCC4CCCCC4)CC3)c2n1` [Example 131, 6-Amino-2-(butyloxy)-9-{5-[1-(2-cyclohexylethyl)-4-piperidinyl]pentyl}-7,9-dihydro-8H-purin-8-one hydrochloride], the EC50 was < 1580 nM.

For the compound `CCCCOc1nc(N)c2[nH]c(=O)n(CCCCCC3CCN(C(C)C)CC3)c2n1` [Example 125, 6-Amino-2-(butyloxy)-9-{5-[1-(1-methylethyl)-4-piperidinyl]pentyl}-7,9-dihydro-8H-purin-8-one], the EC50 is < 1580 nM.

Regarding `CCCCOc1nc(N)c2[nH]c(=O)n(CCC3CCCN(CCC4CCCCC4)C3)c2n1` (stereo not shown) [Example 39, 6-Amino-2-(butyloxy)-9-{2-[1-(2-cyclohexylethyl)-3-piperidinyl]ethyl}-7,9-dihydro-8H-purin-8-one], the EC50 is < 1580 nM.

On to `CCCCOc1nc(N)c2[nH]c(=O)n(CCCCC3CCN(C4CCCCC4)CC3)c2n1` [Example 116, 6-Amino-2-(butyloxy)-9-[4-(1-cyclohexyl-4-piperidinyl)butyl]-7,9-dihydro-8H-purin-8-one], for which the EC50 was < 1580 nM.

In the case of `CCCCOc1nc(N)c2[nH]c(=O)n(CCCC3CCN(CC4CCCC4)CC3)c2n1` [Example 101, 6-Amino-2-(butyloxy)-9-{3-[1-(cyclopentylmethyl)-4-piperidinyl]propyl}-7,9-dihydro-8H-purin-8-one], the EC50 is < 1580 nM.

With `CCCCOc1nc(N)c2[nH]c(=O)n(CCCCC3CCCN(CCCC)C3)c2n1` (stereo not shown) [Example 59, 6-Amino-2-(butyloxy)-9-[4-(1-butyl-3-piperidinyl)butyl]-7,9-dihydro-8H-purin-8-one], the EC50 was < 1580 nM.

Turning to `CCCCOc1nc(N)c2[nH]c(=O)n(CCCC3CCCCN3CCC(C)C)c2n1` (stereo not shown) [Example 19, 6-Amino-2-(butyloxy)-9-{3-[1-(3-methylbutyl)-2-piperidinyl]propyl}-7,9-dihydro-8H-purin-8-one], the EC50 is < 1580 nM.

On to `CCCCOc1nc(N)c2[nH]c(=O)n(CCCCC3CCCN(CCC(C)C)C3)c2n1` (stereo not shown) [Example 61, 6-Amino-2-(butyloxy)-9-{4-[1-(3-methylbutyl)-3-piperidinyl]butyl}-7,9-dihydro-8H-purin-8-one], for which the EC50 is < 1580 nM.

Turning to `CCCCOc1nc(N)c2[nH]c(=O)n(CC3CCN(C4CCCCC4)CC3)c2n1` [Example 76, 6-Amino-2-(butyloxy)-9-[(1-cyclohexyl-4-piperidinyl)methyl]-7,9-dihydro-8H-purin-8-one], the EC50 is < 1580 nM.

Take `CCC[C@H](C)Oc1nc(N)c2[nH]c(=O)n(CC3CCNCC3)c2n1` [Example 77, 6-Amino-2-{[(1S)-1-Methylbutyl]oxy}-9-(4-piperidinylmethyl)-7,9-dihydro-8H-purin-8-one]: the EC50 was < 1580 nM.

On to `CCCCNc1nc(N)c2[nH]c(=O)n(CCCCC3CCN(CC)CC3)c2n1` [Example 121, 6-Amino-2-(butylamino)-9-[4-(1-ethyl-4-piperidinyl)butyl]-7,9-dihydro-8H-purin-8-one], for which the EC50 is < 1580 nM.

For the compound `CCCCOc1nc(N)c2[nH]c(=O)n(CCCCC3CCCN(CC4CCCC4)C3)c2n1` (stereo not shown) [Example 63, 6-Amino-2-(butyloxy)-9-{4-[1-(cyclopentylmethyl)-3-piperidinyl]butyl}-7,9-dihydro-8H-burin-8-one hydrochloride], the EC50 was < 1580 nM.

Regarding `CCCCOc1nc(N)c2[nH]c(=O)n(CCC3CCCN(CCCC)C3)c2n1` (stereo not shown) [Example 33, 6-Amino-2-(butyloxy)-9-[2-(1-butyl-3-piperidinyl)ethyl]-7,9-dihydro-8H-purin-8-one], the EC50 is < 1580 nM.

As to `CCCCOc1nc(N)c2[nH]c(=O)n(CC3CCN(CCCC)CC3)c2n1` [Example 72, 6-Amino-2-(butyloxy)-9-[(1-butyl-4-piperidinyl)methyl]-7,9-dihydro-8H-purin-8-one], the EC50 is < 1580 nM.

In the case of `CCC[C@H](C)Oc1nc(N)c2[nH]c(=O)n(CCC3CCNCC3)c2n1` [Example 90, 6-Amino-2-{[(1S)-1-methylbutyl]oxy}-9-[2-(4-piperidinyl)ethyl]-7,9-dihydro-8H-purin-8-one], the EC50 was < 1580 nM.

With `CCCCOc1nc(N)c2[nH]c(=O)n(CCCCC3CCN(CCCC)CC3)c2n1` [Example 110, 6-Amino-2-(butyloxy)-9-[4-(1-butyl-4-piperidinyl)butyl]-7,9-dihydro-8H-purin-8-one], the EC50 is < 1580 nM.

Take `CCCCOc1nc(N)c2[nH]c(=O)n(CCCC3CCN(CC(C)C)CC3)c2n1` [Example 97, 6-Amino-2-(butyloxy)-9-{3-[1-(2-methylpropyl)-4-piperidinyl]propyl}-7,9-dihydro-8H-purin-8-one]: the EC50 is < 1580 nM.

As for `CCC[C@H](C)Oc1nc(N)c2[nH]c(=O)n(CCC3CCCNC3)c2n1` (stereo partly drawn) [Example 40, 6-Amino-2-{[(1S)-1-methylbutyl]oxy}-9-[2-(3-piperidinyl)ethyl]-7,9-dihydro-8H-purin-8-one], the EC50 is < 1580 nM.

Regarding `CCCCOc1nc(N)c2[nH]c(=O)n(CCCC3CCCCN3C(C)C)c2n1` (stereo not shown) [Example 16, 6-Amino-2-(butyloxy)-9-{3-[1-(1-methylethyl)-2-piperidinyl]propyl}-7,9-dihydro-8H-purin-8-one], the EC50 was < 1580 nM.

On to `CCCCOc1nc(N)c2[nH]c(=O)n(CCCCCC3CCN(CCCC)CC3)c2n1` [Example 126, 6-Amino-2-(butyloxy)-9-[5-(1-butyl-4-piperidinyl)pentyl]-7,9-dihydro-8H-purin-8-one], for which the EC50 is < 1580 nM.

As for `CCCCNc1nc(N)c2[nH]c(=O)n(CCCCC3CCNCC3)c2n1` [Example 120, 6-Amino-2-(butylamino)-9-[4-(4-piperidinyl)butyl]-7,9-dihydro-8H-purin-8-one], the EC50 was < 1580 nM.
